56 compounds from patent US20210347780A1, “CDPK1 INHIBITORS, COMPOSITIONS, AND METHODS RELATED THERETO” (Vyera Pharmaceuticals, LLC, priority 2018, published 2021) can be followed below.

Usually IC50 stands for the concentration needed to halve the response being measured.

This assay addresses T1, T. gondii CDPK1 (tgCDPK1) (Toxoplasma gondii, UniProt Q9BJF5).
T1 sequence (Q9BJF5 1-507): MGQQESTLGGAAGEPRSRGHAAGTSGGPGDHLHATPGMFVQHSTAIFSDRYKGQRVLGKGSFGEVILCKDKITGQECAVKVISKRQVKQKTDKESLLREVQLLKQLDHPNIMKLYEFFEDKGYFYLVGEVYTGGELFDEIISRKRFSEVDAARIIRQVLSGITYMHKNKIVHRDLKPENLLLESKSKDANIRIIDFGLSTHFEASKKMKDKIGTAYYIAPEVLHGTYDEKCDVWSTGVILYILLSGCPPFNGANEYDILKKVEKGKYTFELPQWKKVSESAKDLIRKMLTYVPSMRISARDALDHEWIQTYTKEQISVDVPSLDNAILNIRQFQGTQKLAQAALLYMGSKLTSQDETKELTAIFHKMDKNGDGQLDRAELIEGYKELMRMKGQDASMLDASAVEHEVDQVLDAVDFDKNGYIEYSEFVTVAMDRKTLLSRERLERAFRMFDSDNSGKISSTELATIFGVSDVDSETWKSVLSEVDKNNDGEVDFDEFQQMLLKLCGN
Briefly: biochemical. To be noted: inhibition of T. gondii CDPK1; at least three independent replicates; read-out: tgCDPK1 IC50. How it is done:
Certain of the compounds prepared as described above were assayed to determine their IC50 for inhibition of T. gondii CDPK1 (tgCDPK1). At least three independent replicates of the assay were conducted for each compound tested.
Regarding `NC(=O)c1ccnc(Oc2nn(C3CCCC3)c3ncnc(N)c23)c1` [Compound 204], the IC50 worked out at 0.067 µM.
Turning to `NC(=O)c1ccnc(Oc2nn(C3CCCCC3)c3ncnc(N)c23)c1` [Compound 205], the IC50 came out at 0.0268 µM.
As for `NC(=O)c1ccnc(Oc2nn(C3CCC(F)(F)CC3)c3ncnc(N)c23)c1` [Compound 206], the figure is 0.0968 µM.
On to `N#Cc1ccnc(Oc2nn([C@H]3CC[C@@H](C(F)(F)F)CC3)c3ncnc(N)c23)c1` [Compound 207], for which the IC50 came to 0.0237 µM.
Regarding `NC(=O)c1ccnc(Oc2nn([C@H]3CC[C@@H](C(F)(F)F)CC3)c3ncnc(N)c23)c1` [Compound 208], the half-maximal inhibitory concentration (IC50) was 0.0901 µM.
For the compound `N#Cc1ccnc(Oc2nn([C@H]3CC[C@H](C(F)(F)F)CC3)c3ncnc(N)c23)c1` [Compound 209], the IC50 was found to be 0.026 µM.
Turning to `CC(C)(C)OC(=O)N1CCC(Cn2nc(Oc3cc(Cl)ccn3)c3c(N)ncnc32)C(F)(F)C1` (centres unmarked) [Compound 212], the half-maximal inhibitory concentration (IC50) was 0.0312 µM.
The figure for `Nc1ncnc2c1c(Oc1cc(Cl)ccn1)nn2CC1CCNCC1(F)F` (centres unmarked) [Compound 213] is 0.0097 µM; for `Nc1ncnc2c1c(Oc1cc(Cl)ccn1)nn2C1CCCCC1` [Compound 214] it is 0.0046 µM; for `N#Cc1ccnc(Oc2nn(C3CCCCC3)c3ncnc(N)c23)c1` [Compound 215] it is 0.0123 µM.
Consider `Nc1ncnc2c1c(Oc1cc(Cl)ccn1)nn2C1CCCOC1` (centres unmarked) [Compound 216], for which the IC50 is 0.0158 µM.
The figure for `COc1ccnc(Oc2nn(C3CCOC3)c3ncnc(N)c23)c1` (centres unmarked) [Compound 219] is 0.0774 µM; for `COc1ccnc(Oc2nn(C3CCOCC3)c3ncnc(N)c23)c1` [Compound 220] it is 0.0544 µM.
Take `N#Cc1ccnc(Oc2nn(CC3CC3)c3ncnc(N)c23)c1` [Compound 221]: the IC50 is 0.0241 µM.
With `Nc1ncnc2c1c(Oc1cc(Cl)ccn1)nn2C1CCCNC1` (centres unmarked) [Compound 222], the IC50 amounted to 0.0246 µM.
The figure for `COc1ccnc(Oc2nn(CC3CC3)c3ncnc(N)c23)c1` [Compound 223] is 0.0251 µM; for `CC(C)(C)OC(=O)N1CCCC(n2nc(Oc3cc(Cl)ccn3)c3c(N)ncnc32)C1` (centres unmarked) [Compound 224] it is 0.0437 µM.
With `Nc1ncnc2c1c(Oc1cc(Cl)ccn1)nn2CC1CC1` [Compound 225], the half-maximal inhibitory concentration (IC50) came to 0.009 µM.
For `CN(C)C1CCC(n2nc(Oc3cc(C(F)(F)F)ccn3)c3c(N)ncnc32)CC1` (centres unmarked) [Compound 227], the half-inhibitory concentration (IC50) is 0.0285 µM.
Regarding `COC(=O)C1CCC(n2nc(Oc3cc(C(F)(F)F)ccn3)c3c(N)ncnc32)CC1` (centres unmarked) [Compound 228], the IC50 was 0.0254 µM.
In the case of `Nc1ncnc2c1c(Oc1cc(C(F)(F)F)ccn1)nn2C1CCC(O)C1` (centres unmarked) [Compound 230], the 50% inhibitory concentration (IC50) turned out to be 0.0242 µM.
As for `Nc1ncnc2c1c(Oc1cc(C(F)(F)F)ccn1)nn2[C@H]1CC[C@@H](O)CC1` [Compound 231], the figure is 0.0186 µM; as for `Nc1ncnc2c1c(Oc1cc(C(F)(F)F)ccn1)nn2C1CCC(N)CC1` (centres unmarked) [Compound 232], 0.0243 µM; as for `Nc1ncnc2c1c(Oc1cc(C(F)(F)F)ccn1)nn2[C@H]1CCCC[C@H]1F` [Compound 233], 0.0344 µM.
In the case of `Nc1ncnc2c1c(Oc1cc(C(F)(F)F)ccn1)nn2C1CC2CNC1C2` (centres unmarked) [Compound 234], the IC50 turned out to be 0.0767 µM.
As for `Nc1ncnc2c1c(Oc1cc(C(F)(F)F)ccn1)nn2[C@H]1CC[C@H](O)CC1` [Compound 235], the figure is 0.0159 µM; as for `COC1CCCCC1n1nc(Oc2cc(C(F)(F)F)ccn2)c2c(N)ncnc21` (centres unmarked) [Compound 236], 0.0856 µM.
As to `CO[C@H]1CC[C@H](n2nc(Oc3cc(C(F)(F)F)ccn3)c3c(N)ncnc32)CC1` [Compound 237], the IC50 was found to be 0.0381 µM.
As for `CO[C@H]1CC[C@@H](n2nc(Oc3cc(C(F)(F)F)ccn3)c3c(N)ncnc32)CC1` [Compound 238], the figure is 0.0447 µM.
Consider `Nc1ncnc2c1c(Oc1cc(C(F)(F)F)ccn1)nn2[C@H]1CC[C@@H](N)CC1` [Compound 239], for which the IC50 stood at 0.0231 µM.
For `CC(C)(C)OC(=O)N[C@H]1CC[C@@H](n2nc(Oc3cc(C(F)(F)F)ccn3)c3c(N)ncnc32)C1` [Compound 240], the IC50 was 0.0121 µM.
Turning to `Nc1ncnc2c1c(Oc1cc(C(F)(F)F)ccn1)nn2[C@H]1CC[C@@H](CO)CC1` [Compound 242], the IC50 was 0.0151 µM.
Turning to `Nc1ncnc2c1c(Oc1cc(C(F)(F)F)ccn1)nn2[C@H]1CC[C@H](CO)CC1` [Compound 243], the IC50 turned out to be 0.0103 µM.
Regarding `Nc1ncnc2c1c(Oc1cc(C(F)(F)F)ccn1)nn2CC1(C(F)(F)F)CC1` [Compound 244], the half-maximal inhibitory concentration (IC50) came to 0.031 µM.
For the compound `Nc1ncnc2c1c(Oc1cccc(Cl)c1)nn2Cc1cc[nH]c1` [Compound 247], the IC50 came out at 0.0194 µM.
In the case of `Nc1ncnc2c1c(Oc1cc(C(F)(F)F)ccn1)nn2[C@H]1COC[C@H](N)C1` [Compound 248], the IC50 worked out at 0.0607 µM.
As for `Nc1ncnc2c1c(Oc1cc(C(F)(F)F)ccn1)nn2[C@H]1COC[C@@H](N)C1` [Compound 249], the figure is 0.055 µM.
The figure for `Nc1ncnc2c1c(Oc1cccc(Cl)c1)nn2CC1(CO)CC1` [Compound 250] is 0.0349 µM; for `Nc1ncnc2c1c(Oc1cc(C(F)(F)F)ccn1)nn2[C@@H]1CC[C@H](N)C1` [Compound 251] it is 0.0421 µM.
For the compound `Nc1ncnc2[nH]nc(Oc3cccc(Cl)c3)c12` [Compound 252], the IC50 worked out at 0.0773 µM.
`CC(C)(C)n1nc(Cc2c[nH]c3ccccc23)c2c(N)ncnc21` [Compound 254]: the IC50 stood at 0.009 µM.
As for `CC(C)(C)n1nc(Cc2cccc(C#N)c2)c2c(N)ncnc21` [Compound 255], the figure is 0.0134 µM; as for `Nc1ncnc2c1c(Oc1cc(C(F)(F)F)ccn1)nn2C1CCCC1` [Compound 257], 0.0234 µM.
`CC(C)(C)n1nc(Oc2cc(C(F)(F)F)ccn2)c2c(N)ncnc21` [Compound 258]: the IC50 was determined as 0.0139 µM.
Consider `CC(C)(C)n1nc(Oc2cc(C#N)ccn2)c2c(N)ncnc21` [Compound 259], for which the IC50 stood at 0.0181 µM.
On to `CC(C)(C)n1nc(Oc2cc(C(N)=O)ccn2)c2c(N)ncnc21` [Compound 260], for which the half-inhibitory concentration (IC50) is 0.0405 µM.
Take `Nc1ncnc2c1c(Oc1cc(Cl)ccn1)nn2C1CCC(F)(F)CC1` [Compound 261]: the concentration for half-maximal inhibition (IC50) came out at 0.0353 µM.
For `CC(C)(C)n1nc(Oc2cc(Cl)ccn2)c2c(N)ncnc21` [Compound 262], the half-maximal inhibitory concentration (IC50) was 0.012 µM.
Consider `N#Cc1ccnc(Oc2nn(CC3CCNCC3(F)F)c3ncnc(N)c23)c1` (centres unmarked) [Compound 263], for which the concentration for half-maximal inhibition (IC50) is 0.0392 µM.
Regarding `CC(C)(C)n1nc(Oc2cc(O)ccn2)c2c(N)ncnc21` [Compound 264], the IC50 is 0.0139 µM.
Consider `CC(C)(CO)Cn1nc(Oc2cccc(Cl)c2)c2c(N)ncnc21` [Compound 265], for which the concentration for half-maximal inhibition (IC50) is 0.0479 µM.
Take `C=CC(O)Cn1nc(Oc2cc(C(F)(F)F)ccn2)c2c(N)ncnc21` (centres unmarked) [Compound 268]: the IC50 came out at 0.0117 µM.
Turning to `Nc1ncnc2c1c(Oc1cc(C(F)(F)F)ccn1)nn2CC1CCB(O)O1` (centres unmarked) [Compound 269], the IC50 was 0.0286 µM.
In the case of `Nc1ncnc2c1c(Oc1cc(C(F)(F)F)ccn1)nn2CC1CC(B(O)O)C1` (centres unmarked) [Compound 270], the IC50 was determined as 0.0287 µM.
In the case of `Nc1ncnc2c1c(Oc1cc(C(F)(F)F)ccn1)nn2C1CCNCC1(F)F` (centres unmarked) [Compound 271], the half-inhibitory concentration (IC50) was 0.0198 µM.
As for `Nc1ncnc2c1c(Oc1cc(C(F)(F)F)ccn1)nn2C1(C(F)(F)F)CCC1` [Compound 272], the IC50 came out at 0.0207 µM.
